Laboratory results: ChEMBL document CHEMBL5316312, “Novel Diarylthioether Compounds as Agents for the Treatment of Chagas Disease” (J Med Chem, 2023)
Values after ≈ are worked out from the molar mass of the structure shown. Active and inactive are the calls of the source. No cut-off for these calls is given here.

Key:
Trypanosoma cruzi [1] = assay: Antitrypanosomal activity against Trypanosoma cruzi Tulahuen trypomastigotes assessed as reduction in parasite growth incubated for 4 hrs by cell counter analysis; assay type: functional, organism-based
[2] = Cytotoxicity against rat H9c2 cells assessed as reduction in cell viability measured for 72 hrs; assay type: toxicity, cell-based
[3] = Microsomal stability in CD-1 mouse liver microsome measured assessed as intrinsic clearance upto 30 mins by HPLC-MS/MS analysis; assay type: ADME; conditions: microsomes, 0.5 h
[4] = Microsomal stability in human liver microsome measured assessed as intrinsic clearance upto 30 mins by HPLC-MS/MS analysis; assay type: ADME; conditions: microsomes, 0.5 h
[5] = AUC (0 to t) in BALB/c mouse at 50 mg/kg, po measured at 15 to 1440 mins by LC-MS/MS analysis; assay type: ADME, organism-based; parameters: dose 50 mg/kg, time upper 1440 min, time lower 15 min, route po; conditions: in vivo
[6] = Tmax in BALB/c mouse at 50 mg/kg, po measured at 15 to 1440 mins by LC-MS/MS analysis; assay type: ADME, organism-based; conditions: in vivo, time 15-1440 min
[7] = Microsomal stability in human liver microsome measured assessed as half life upto 30 mins by HPLC-MS/MS analysis; assay type: ADME; conditions: liver microsomes
[8] = Cmax in BALB/c mouse at 50 mg/kg, po measured at 15 to 1440 mins by LC-MS/MS analysis; assay type: ADME, organism-based; parameters: time lower 15 min, dose 50 mg/kg, time upper 1440 min, route po; conditions: in vivo
[9] = Microsomal stability in CD-1 mouse liver microsome measured assessed as half life upto 30 mins by HPLC-MS/MS analysis; assay type: ADME; conditions: liver microsomes
[10] = Toxicity in BALB/c mouse assessed as reduction in body weight loss at 50 mg/kg, po bid; assay type: organism-based; parameters: scale not given: the % may be the effect or the level left; conditions: in vivo
Trypanosoma cruzi [11] = assay: In vivo antitrypanosomal activity against Trypanosoma cruzi infected in BALB/c mouse model assessed as reduction in parasitemia at 30 mg/kg, po preincubated for 4 days post infection followed by compound treatment and measured after 5 to 10 days; assay type: functional; parameters: scale not given: the % may be the effect or the level left; conditions: time 5-10 day
[12] = AUC in BALB/c mouse at 50 mg/kg, po measured at 15 to 1440 mins by LC-MS/MS analysis; assay type: ADME, organism-based; parameters: time upper 1440 min, dose 50 mg/kg, time lower 15 min, route po; conditions: in vivo
HepG2 = assay: Cytotoxicity against human HepG2 cells assessed as reduction in cell viability; assay type: functional, cell-based
[13] = biological target: Sterol 14-alpha demethylase (Trypanosoma cruzi (strain CL Brener), UniProt Q7Z1V1); assay: Inhibition of Trypanosoma cruzi CYP51
Sequence of Sterol 14-alpha demethylase (Q7Z1V1 whole entry): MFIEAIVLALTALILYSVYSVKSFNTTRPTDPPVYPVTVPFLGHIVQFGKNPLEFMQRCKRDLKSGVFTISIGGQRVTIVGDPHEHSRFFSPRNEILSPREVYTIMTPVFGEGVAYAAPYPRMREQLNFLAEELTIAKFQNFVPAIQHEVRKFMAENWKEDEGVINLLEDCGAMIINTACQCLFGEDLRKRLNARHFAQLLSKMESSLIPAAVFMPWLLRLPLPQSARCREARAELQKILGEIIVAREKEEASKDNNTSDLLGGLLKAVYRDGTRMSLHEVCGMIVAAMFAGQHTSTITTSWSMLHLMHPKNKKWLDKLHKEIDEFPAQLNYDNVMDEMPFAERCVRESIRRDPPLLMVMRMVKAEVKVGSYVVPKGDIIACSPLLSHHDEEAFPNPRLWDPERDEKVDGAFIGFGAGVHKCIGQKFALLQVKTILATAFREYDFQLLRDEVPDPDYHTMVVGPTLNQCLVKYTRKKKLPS

Trypanosoma cruzi [14] = assay: Antitrypanosomal activity against Trypanosoma cruzi Tulahuen amastigotes infected in monkey LLC-MK2 cells assessed as reduction in amastigotes per 100 cells by cell counting analysis; assay type: functional, organism-based
[15] = Equilibrium solubility of the compound in FaSSIF at pH 6.5; assay type: physicochemical
[16] = Cytotoxicity against mouse NIH3T3 cells assessed as reduction in cell viability; assay type: toxicity, cell-based
[17] = biological target: Voltage-gated inwardly rectifying potassium channel KCNH2 (Homo sapiens, UniProt Q12809); assay: Inhibition of hERG cardiac ion channel; assay type: toxicity
Sequence of Voltage-gated inwardly rectifying potassium channel KCNH2 (Q12809 whole entry): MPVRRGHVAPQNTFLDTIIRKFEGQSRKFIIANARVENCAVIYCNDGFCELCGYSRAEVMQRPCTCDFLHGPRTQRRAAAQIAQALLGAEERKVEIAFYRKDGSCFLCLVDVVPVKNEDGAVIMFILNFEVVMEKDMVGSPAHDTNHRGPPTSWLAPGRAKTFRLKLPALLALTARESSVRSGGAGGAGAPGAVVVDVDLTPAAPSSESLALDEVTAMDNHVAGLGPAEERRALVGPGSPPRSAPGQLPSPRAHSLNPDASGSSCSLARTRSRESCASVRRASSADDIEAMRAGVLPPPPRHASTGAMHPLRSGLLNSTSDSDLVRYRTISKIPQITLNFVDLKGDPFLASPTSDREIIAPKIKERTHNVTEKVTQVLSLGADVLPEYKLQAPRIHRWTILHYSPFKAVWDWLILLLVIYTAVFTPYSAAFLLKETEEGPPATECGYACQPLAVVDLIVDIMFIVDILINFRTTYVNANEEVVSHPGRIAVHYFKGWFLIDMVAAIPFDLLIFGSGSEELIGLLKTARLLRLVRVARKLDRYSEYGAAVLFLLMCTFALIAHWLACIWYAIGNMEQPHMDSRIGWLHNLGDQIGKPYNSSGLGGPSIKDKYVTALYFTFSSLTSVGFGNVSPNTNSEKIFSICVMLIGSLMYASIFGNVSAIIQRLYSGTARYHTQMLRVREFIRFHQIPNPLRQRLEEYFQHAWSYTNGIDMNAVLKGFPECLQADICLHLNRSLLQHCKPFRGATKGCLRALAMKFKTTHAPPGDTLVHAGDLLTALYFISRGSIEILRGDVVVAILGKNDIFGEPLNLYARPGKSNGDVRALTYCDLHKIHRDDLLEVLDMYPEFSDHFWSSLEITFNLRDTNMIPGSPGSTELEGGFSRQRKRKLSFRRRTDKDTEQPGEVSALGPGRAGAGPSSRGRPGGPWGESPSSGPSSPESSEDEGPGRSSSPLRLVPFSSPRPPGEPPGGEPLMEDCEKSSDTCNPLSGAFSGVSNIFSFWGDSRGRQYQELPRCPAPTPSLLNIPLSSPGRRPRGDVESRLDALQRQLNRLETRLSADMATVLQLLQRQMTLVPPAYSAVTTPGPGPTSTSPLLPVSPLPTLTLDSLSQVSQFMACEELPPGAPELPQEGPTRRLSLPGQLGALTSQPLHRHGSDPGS

Trypanosoma cruzi [18] = assay: Antitrypanosomal activity against Trypanosoma cruzi Tulahuen amastigotes infected in monkey LLC-MK2 cells assessed reduction in amastigotes per 100 cells by measuring rate of kill time by counting analysis; assay type: functional
[19] = Cytotoxicity against monkey LLC-MK2 cells assessed as reduction in cell viability; assay type: toxicity, cell-based; conditions: rhesus monkey (Macaca mulatta)
Trypanosoma cruzi [20] = assay: Antitrypanosomal activity against Trypanosoma cruzi Tulahuen strain trypomastigotes infected in rat H9c2 cells; assay type: functional, organism-based

Structure (SMILES) | IC50 (Trypanosoma cruzi [1]) [µM] | IC50 at 72 h [2] [µM] | also measured
O=C(O)c1cc(N2CCCC2=O)ccc1Sc1ccccc1CO | > 50.1 | > 50.1 | –
O=C1CCCN1c1ccc(Sc2c(Cl)cccc2CO)c(C(F)(F)F)c1 | 1.26 | > 50.1 | –
Cc1ccc(CO)c(Sc2ccc(N3CCCC3=O)cc2C(F)(F)F)c1 | 15.8 | > 50.1 | –
O=C1CCCN1c1ccc(Sc2ccccc2CO)c(OC(F)(F)F)c1 | 2.51 | > 50.1 | –
COc1cccc(Sc2ccc(N3CCCC3=O)cc2C(F)(F)F)c1CO | 25.1 | > 50.1 | –
O=C1CCCN1c1ccc(S(=O)(=O)c2ccccc2CO)c(C(F)(F)F)c1 | 0.251 | > 50.1 | CLH [3]: 20 mL/min/g; CLH [4]: 12.5 mL/min/g; AUC(0-t) [5]: 208 ng·h/mL; Tmax [6]: 30 min; half-life [7]: 3.32 min; Cmax [8]: 175 ng/mL; half-life [9]: 4.39 min
O=C1CCCN1c1ccc(Sc2ccccc2CO)cc1 | > 50.1 | > 50.1 | –
Cc1cccc(Sc2ccc(N3CCCC3=O)cc2C(F)(F)F)c1CO | 0.316 | > 50.1 | –
O=C1CCCN1c1ccc(Sc2ccccc2O)c(C(F)(F)F)c1 | 2 | 15.8 | –
O=C1CCCN1c1ccc(Sc2ccccc2CO)c(F)c1 | 5.01 | > 50.1 | –
O=C1CCCN1c1ccc(Sc2cc(Cl)ccc2CO)c(C(F)(F)F)c1 | 6.31 | 39.8 | –
COC(=O)c1cc(N2CCCC2=O)ccc1Sc1ccccc1CO | 31.6 | > 50.1 | –
Cc1cccc(CO)c1Sc1ccc(N2CCCC2=O)cc1C(F)(F)F | 0.794 | > 50.1 | –
O=C(Cn1ccnc1[N+](=O)[O-])NCc1ccccc1 [BENZNIDAZOLE] | 1.26 | 31.6 | –
O=C1CCCN1c1ccc(Sc2ccc(F)cc2CO)c(C(F)(F)F)c1 | – | > 50.1 | –
N#Cc1cc(N2CCCC2=O)ccc1Sc1ccccc1C(=O)O | 0.794 | > 50.1 | –
O=C1CCCN1c1ccc(Sc2ccccc2CO)cc1C(F)(F)F | 7.94 | > 50.1 | –
O=C1CCCN1c1ccc(Sc2cccc(F)c2CO)c(C(F)(F)F)c1 | 0.02 | > 50.1 | –

Structure (SMILES) | IC50 (Trypanosoma cruzi [1]) [µM] | IC50 at 72 h [2] [µM] | also measured
COCc1ccccc1Sc1ccc(N2CCCC2=O)cc1C#N | 6.31 | 31.6 | –
O=C1CCCN1c1ccc(Sc2ccccc2CO)c(C(F)(F)F)c1 | 0.0316 | > 50.1 | CLH [3]: 31.49 mL/min/g; CLH [4]: 11.51 mL/min/g; Activity [10]: 16%; Activity (Trypanosoma cruzi [11]): 70%; AUC(0-t) [5]: 485 ng·h/mL; Tmax [6]: 30 min; AUC [12]: 530 ng·h/mL; half-life [7]: 2.11 min; Cmax [8]: 301 ng/mL; half-life [9]: 4.78 min
O=C1CCCN1c1ccc(Sc2cccc(Cl)c2CO)c(C(F)(F)F)c1 | 0.316 | > 50.1 | –
COc1ccc(CO)c(Sc2ccc(N3CCCC3=O)cc2C(F)(F)F)c1 | 15.8 | > 50.1 | –
CCc1ccccc1Sc1ccc(N2CCCC2=O)cc1C(F)(F)F | 20 | 15.8 | –
O=C1CCCN1c1ccc(Sc2ccc(Cl)cc2CO)c(C(F)(F)F)c1 | 0.158 | 31.6 | –
O=C1CCCN1c1ccc(Sc2ncccc2CO)c(C(F)(F)F)c1 | 20 | > 50.1 | –
O=C1CCCN1c1ccc(Sc2ccccc2CO)c(Cl)c1 | 0.2 | > 50.1 | –
N#Cc1cc(N2CCCC2=O)ccc1Sc1ccccc1CO | – | 0.447 | Activity (Trypanosoma cruzi [1]): inactive; CLH [3]: 1.36 mL/min/g; CLH [4]: 4.62 mL/min/g; IC50 (HepG2): > 100 µM; IC50 [13]: > 10 µM; IC50 (Trypanosoma cruzi [14]): 0.251 µM; solubility thermodynamic [15]: 56 µg/mL (≈ 173 µM); IC50 [16]: > 50.1 µM; half-life [7]: 15 min; IC50 [17]: > 50.1 µM; Time (Trypanosoma cruzi [18]): >24 h; IC50 [19]: 0.447 µM; IC50 (Trypanosoma cruzi [20]): 0.24 µM; half-life [9]: 54 min
Cc1ccc(Sc2ccc(N3CCCC3=O)cc2C(F)(F)F)c(CO)c1 | 6.31 | > 50.1 | –
COc1cccc(CO)c1Sc1ccc(N2CCCC2=O)cc1C(F)(F)F | 20 | > 50.1 | –
Cc1cc(N2CCCC2=O)ccc1Sc1ccccc1CO | 6.31 | > 50.1 | –
N#Cc1cc(N2CCCC2=O)ccc1Sc1cccc(CO)c1 | 31.6 | > 50.1 | –
N#Cc1cc(N2CCCC2=O)ccc1Oc1ccccc1CO | 2.51 | > 50.1 | –
CN(C)C(=O)c1cc(N2CCCC2=O)ccc1Sc1ccccc1CO | 50.1 | > 50.1 | –
O=C1CCCN1c1ccc(Sc2ccccc2CO)nc1 | 12.6 | > 50.1 | –
O=C1CCCN1c1ccc(Sc2cc(F)ccc2CO)c(C(F)(F)F)c1 | 0.126 | > 50.1 | –
COc1ccc(Sc2ccc(N3CCCC3=O)cc2C(F)(F)F)c(CO)c1 | 1 | > 50.1 | –
